Source: US6699849B1, “Cyclodextrin complexes of benzodiazepines” (Cyclops, ehf., priority 1998, dated 2004)

Columns and labels:
[1] = Flux of alprazolam through hairless mouse skin in Franz diffusion cells
Method: Female hairless mice were sacrificed by cervical dislocation and their full-thickness skins removed. […] The skin was placed in Franz diffusion cells. The receptor phase consisted of phosphate buffer saline pH 7.4. The skin diffusion cells were stirred with a magnetic bar and kept at 37° C. by circulating water through an external jacket. […] The samples were kept frozen until analyzed by HPLC. The flux was calculated from the linear part of each permeability profile and the permeability coefficient obtained by dividing the flux with the concentration of dissolved drug in the donor phase.

[2] = First-order rate constant of diazepine ring-closure (regeneration of the benzodiazepine); assay type: physicochemical; conditions: pH 7.5, 37° C.
Method: The effect of cyclodextrins and organic solvents on the rate of diazepine ring-closure of several selected benzodiazepines was investigated. Stock solutions containing 1.0×10^−3 M of the benzodiazepine in 0.10 M aqueous hydrochloric acid solution (pH approx. 1.1) were prepared and stored at 37.0° C. The benzodiazepines were in the ring-open form in these stock solutions. Aqueous 0.50 M tris buffer (pH 7.50) solution was prepared. The observed first-order rate constant for the closing (i.e. formation) of the benzodiazepine ring was determined in the following reaction media: a) pure aqueous tris buffer solution; b) aqueous tris buffer solution containing 10% (w/v) cyclodextrin; c) tris buffer solution containing 10% (w/v) cyclodextrin and 10% (v/v) ethanol (EtOH); d) tris buffer solution containing 10% (w/v) cyclodextrin and 50% (v/v) EtOH; e) tris buffer solution containing 10% (w/v) cyclodextrin and 10% (v/v) dimethylsulfoxide (DMSO); and f) tris buffer solution containing 10% (w/v) cyclodextrin and 50% (w/v) DMSO. The stock solution (30 μl) was added to 1.50 ml of the reaction media which had previously been equilibrated to 37.0° C. and the first-order rate constant for the appearance of the closed form determined from the appearance of the closed form as observed on HPLC. Tables 5, 6 and 7 show the effects of cyclodextrins, EtOH and DMSO on the observed first-order rate constant for the regeneration of alprazolam, triazolam and midazolam, respectively. In pure aqueous buffer solutions, addition of EtOH and DMSO decreases somewhat the rate of ring closure, at least in the case of alprazolam and midazolam. Addition of cyclodextrin or the organic solvents have insignificant effect on the pH under these conditions. The dielectric constant of the reaction medium will, however, decrease upon addition of the organic solvents. It is possible that this decrease in the dielectric constant will reduce the ability of the reaction media to stabilize the transition state which could explain the decrease in the observed rate constant. […] The cyclodextrins formed stable complexes with the ring-open form of the drug and, thus, the rate decreased upon addition of cyclodextrin. […] EtOH and DMSO will compete with the diazepine ring-open form for a space in the cyclodextrin cavity resulting in decreased complexation.

[3] = Effect of pH and cyclodextrins on the fraction of the open form (diazepine ring-opening) of benzodiazepines; assay type: physicochemical
Method: The cyclodextrin concentration was 10% (w/v) and the benzodiazepine concentration was 1×10^−4 M. The concentration of the closed form was determined immediately after dissolving the benzodiazepine in the aqueous cyclodextrin solution and again 24 hours later (i.e. after equilibration at 23° C.). Preliminary experiments had shown that equilibrium between the closed and the open form was attained within 3 hours at 23° C.

[4] = 10% (w/v) HPβCD, pH 2, approx. 23° C.
[5] = 10% (w/v) HPβCD, pH 3, approx. 23° C.
[6] = 10% (w/v) HPβCD, pH 4, approx. 23° C.
[7] = 10% (w/v) SBEβCD, pH 2, approx. 23° C.
[8] = 10% (w/v) SBEβCD, pH 3, approx. 23° C.
[9] = 10% (w/v) SBEβCD, pH 4, approx. 23° C.
[10] = 10% (w/v) αCD, pH 2, approx. 23° C.
[11] = 10% (w/v) αCD, pH 3, approx. 23° C.
[12] = 10% (w/v) αCD, pH 4, approx. 23° C.
[13] = 10% (w/v) γCD, pH 2, approx. 23° C.
[14] = 10% (w/v) γCD, pH 3, approx. 23° C.
[15] = 10% (w/v) γCD, pH 4, approx. 23° C.
[16] = no cyclodextrin, pH 2, approx. 23° C.
[17] = no cyclodextrin, pH 3, approx. 23° C.
[18] = no cyclodextrin, pH 4, approx. 23° C.

SMILES	observed first-order rate constant, ring formation ([2]; 10% HPβCD, 10% DMSO) [min⁻¹]	observed first-order rate constant, ring formation ([2]; 10% HPβCD, 10% EtOH) [min⁻¹]	observed first-order rate constant, ring formation ([2]; 10% HPβCD, 50% DMSO) [min⁻¹]	observed first-order rate constant, ring formation ([2]; 10% HPβCD, 50% EtOH) [min⁻¹]	observed first-order rate constant, ring formation ([2]; 10% HPβCD, pure water) [min⁻¹]	Fraction open [3, 4]	Fraction open [3, 5]	Fraction open [3, 6]	Fraction open [3, 7]	Fraction open [3, 8]	Fraction open [3, 9]	Fraction open [3, 10]	Fraction open [3, 11]	Fraction open [3, 12]	Fraction open [3, 13]	Fraction open [3, 14]	Fraction open [3, 15]	Fraction open [3, 16]	Fraction open [3, 17]	Fraction open [3, 18]	further results
Cc1nnc2n1-c1ccc(Cl)cc1C(c1ccccc1)=NC2 [alprazolam, 8-chloro-1-methyl-6-phenyl-4H-s-triazolo[4,3-a][1,4]benzodiazepine]	444	523	857	707	330	0.89	0.60	0.23	0.96	0.84	0.33	0.94	0.79	0.25	0.81	0.41	0.42	0.82	0.56	0.33	alprazolam concentration in the donor phase (saturated) ([1]; aqueous 7% (w/v) SBEβCD, pH 3.3): 1.85 mg/mL; Flux ([1]; donor 7% (w/v) SBEβCD pH 3.3, without increasing the pH): 3.91 × 10^−4 mg/cm^2/h; Flux ([1]; donor 7% (w/v) SBEβCD, increasing the pH from 3.3 to 4.1): 4.56 × 10^−4 mg/cm^2/h; Flux Ratio ([1]; increasing the pH from 3.3 to 4.1): 1.2; Flux Ratio ([1]; without increasing the pH): 1.0; observed first-order rate constant, ring formation ([2]; 10% RMβCD, 10% DMSO): 397 min⁻¹; observed first-order rate constant, ring formation ([2]; 10% RMβCD, 10% EtOH): 490 min⁻¹; observed first-order rate constant, ring formation ([2]; 10% RMβCD, 50% DMSO): 792 min⁻¹; observed first-order rate constant, ring formation ([2]; 10% RMβCD, 50% EtOH): 670 min⁻¹; observed first-order rate constant, ring formation ([2]; 10% RMβCD, pure water): 297 min⁻¹; observed first-order rate constant, ring formation ([2]; 10% SBEβCD, 10% EtOH): 518 min⁻¹; observed first-order rate constant, ring formation ([2]; 10% SBEβCD, 50% DMSO): 936 min⁻¹; observed first-order rate constant, ring formation ([2]; 10% SBEβCD, 50% EtOH): 582 min⁻¹; observed first-order rate constant, ring formation ([2]; 10% SBEβCD, pure water): 311 min⁻¹; observed first-order rate constant, ring formation ([2]; No CD, 10% DMSO): 968 min⁻¹; observed first-order rate constant, ring formation ([2]; No CD, 10% EtOH): 1150 min⁻¹; observed first-order rate constant, ring formation ([2]; No CD, 50% DMSO): 1070 min⁻¹; observed first-order rate constant, ring formation ([2]; No CD, 50% EtOH): 724 min⁻¹; observed first-order rate constant, ring formation ([2]; No CD, pure water): 1420 min⁻¹; share of drug in the open form ([3]; aqueous HPβCD solution, pH 3): about 60%
CN1C(=O)CN=C(c2ccccc2)c2cc(Cl)ccc21 [Diazepam]	–	–	–	–	–	0.65	0.29	0.15	0.63	0.56	0.22	0.67	0.51	0.13	0.41	0.17	0.13	0.30	0.23	0.15	–
Cc1nnc2n1-c1ccc(Cl)cc1C(c1ccccc1Cl)=NC2 [triazolam, 8-chloro-6-(o-chlorophenyl)-1-methyl-4H-s-triazolo[4,3-a][1,4]benzodiazepine]	0.0079	0.0092	0.0114	0.0102	0.0066	0.51	0.09	0.00	0.71	0.25	0.00	0.75	0.23	0.00	0.33	0.01	0.00	0.53	0.08	0.00	observed first-order rate constant, ring formation ([2]; 10% RMβCD, 10% DMSO): 0.0078 min⁻¹; observed first-order rate constant, ring formation ([2]; 10% RMβCD, 10% EtOH): 0.0092 min⁻¹; observed first-order rate constant, ring formation ([2]; 10% RMβCD, 50% DMSO): 0.0112 min⁻¹; observed first-order rate constant, ring formation ([2]; 10% RMβCD, 50% EtOH): 0.01 min⁻¹; observed first-order rate constant, ring formation ([2]; 10% RMβCD, pure water): 0.0064 min⁻¹; observed first-order rate constant, ring formation ([2]; 10% SBEβCD, 10% DMSO): 0.0073 min⁻¹; observed first-order rate constant, ring formation ([2]; 10% SBEβCD, 10% EtOH): 0.0082 min⁻¹; observed first-order rate constant, ring formation ([2]; 10% SBEβCD, 50% DMSO): 0.0113 min⁻¹; observed first-order rate constant, ring formation ([2]; 10% SBEβCD, 50% EtOH): 0.0097 min⁻¹; observed first-order rate constant, ring formation ([2]; 10% SBEβCD, pure water): 0.0058 min⁻¹; observed first-order rate constant, ring formation ([2]; No CD, 10% DMSO): 0.0128 min⁻¹; observed first-order rate constant, ring formation ([2]; No CD, 10% EtOH): 0.0131 min⁻¹; observed first-order rate constant, ring formation ([2]; No CD, 50% DMSO): 0.0137 min⁻¹; observed first-order rate constant, ring formation ([2]; No CD, 50% EtOH): 0.0184 min⁻¹; observed first-order rate constant, ring formation ([2]; No CD, pure water): 0.0132 min⁻¹
